# Experimental data published in patent US20050209278A1, “Piperidinyl- and piperazinyl-sulfonylmethyl hydroxamic acids and their use as protease inhibitors” (priority 2002, published 2005).
# Target: T1, MMP-1 (Homo sapiens, UniProt P03956)
# T1 construct: made in house; host or cells: MMP-1-transfected HT-1080 cells (spent media)
# T1 sequence (P03956 100-469): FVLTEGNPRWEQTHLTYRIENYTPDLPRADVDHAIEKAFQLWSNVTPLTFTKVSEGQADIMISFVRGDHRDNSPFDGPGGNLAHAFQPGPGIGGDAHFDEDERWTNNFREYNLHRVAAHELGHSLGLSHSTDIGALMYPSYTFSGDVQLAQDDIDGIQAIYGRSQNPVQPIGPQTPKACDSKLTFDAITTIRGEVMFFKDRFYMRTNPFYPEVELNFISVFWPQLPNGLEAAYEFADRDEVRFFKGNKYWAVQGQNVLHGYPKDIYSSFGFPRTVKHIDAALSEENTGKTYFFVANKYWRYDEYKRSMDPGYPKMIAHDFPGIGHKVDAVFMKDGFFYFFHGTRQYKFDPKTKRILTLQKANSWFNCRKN
# Assay: In vitro MMP inhibition, Ki determination (fluorogenic substrate II)
# Type: biochemical
# Conditions: value not in parenthesis; read-out: MMP-1 Ki
row,Ki [µM],Structure (SMILES)
1,> 10,CCCCOc1ccc(N2CCN(S(=O)(=O)C3(C(=O)NO)CC3)CC2)cc1 [Example 63]
2,> 10,CCCCOc1ccc(N2CCN(S(=O)(=O)C3(C(=O)NO)CCSCC3)CC2)cc1 [Example 232]
3,7.81,O=C(NO)C1(S(=O)(=O)N2CCN(c3ccc(SC(F)(F)F)cc3)CC2)CCOCC1 [Example 170]
4,> 10,CCCCOc1ccc(N2CCN(S(=O)(=O)C3(C(=O)NO)CCN(CCN4CCOCC4)CC3)CC2)cc1 [Example 233]
5,> 10,CCCCCc1ccc(N2CCN(S(=O)(=O)C3(C(=O)NO)CCN(C(C)=O)CC3)CC2)cc1 [Example 239]
6,> 10,CCCc1ccc(N2CCN(S(=O)(=O)C3(C(=O)NO)CCN(c4ccc(C)cc4)CC3)CC2)cc1 [Example 171]
7,> 10,CCCCOc1ccc(N2CCN(S(=O)(=O)C3(C(=O)NO)CCN(Cc4nccn4C)CC3)CC2)cc1 [Example 245]
8,> 10,CCCCOc1ccc(N2CCN(S(=O)(=O)C3(C(=O)NO)CCN(c4ccc5c(c4)OCO5)CC3)CC2)cc1 [Example 221]
9,> 10,O=C(NO)C1(S(=O)(=O)N2CCN(c3ccc4c(c3)OC(F)(F)C(F)(F)O4)CC2)CCOCC1 [Example 67]
10,> 10,CCCCOc1ccc(N2CCN(S(=O)(=O)C3(C(=O)NO)CCN(c4ccc(N(C)C)cc4)CC3)CC2)cc1 [Example 241]
11,> 10,O=C(NO)C1(S(=O)(=O)N2CCN(c3cnc(CCC(F)(F)F)cn3)CC2)CCOCC1 [Example 218]
12,> 10,CCCCOc1ccc(N2CCN(S(=O)(=O)C3(C(=O)NO)CCN(C(=O)N(CC)CC)CC3)CC2)cc1 [Example 242]
13,> 10,CCCCOc1ccc(N2CCN(S(=O)(=O)C3(C(=O)NO)CCN(CCN(CC)CC)CC3)CC2)cc1 [Example 235]
14,> 10,CCCCOc1ccc(N2CCN(S(=O)(=O)C3(C(=O)NO)CCN(c4ccc(C#N)cc4)CC3)CC2)cc1 [Example 225]
15,> 10,CCCCc1ccc(N2CCN(S(=O)(=O)C3(C(=O)NO)CCN(CCOC)CC3)CC2)cc1F [Example 173]
16,> 10,CCCc1nnc(N2CCN(S(=O)(=O)C3(C(=O)NO)CCOCC3)CC2)s1 [Example 216]
17,> 10,Cc1ccc(N2CCC(C(=O)NO)(S(=O)(=O)N3CCN(c4ccc(OCCCC(F)(F)F)cc4)CC3)CC2)cc1 [Example 161]
18,9.81,O=C(NO)C1(S(=O)(=O)N2CCN(c3ccc(OCC(F)(F)C(F)(F)F)cc3)CC2)CCOCC1 [Example 212]
19,> 10,CCCCc1ccc(N2CCN(S(=O)(=O)C(C)C(=O)NO)CC2)nc1 (centres unmarked) [Example 217]
20,> 10,CCCCOc1ccc(N2CCN(S(=O)(=O)C3(C(=O)NO)CCN(C(=O)N4CCCCC4)CC3)CC2)cc1 [Example 243]
21,> 10,CCCCOc1c(F)cc(N2CCN(S(=O)(=O)C3(C(=O)NO)CCN(CCOC)CC3)CC2)cc1F [Example 165]
22,> 10,CCCCOc1ccc(N2CCN(S(=O)(=O)C3(C(=O)NO)CCN(C(=O)c4cccs4)CC3)CC2)cc1 [Example 160]

row,Ki [µM],Structure (SMILES)
1,> 10,CCCCOc1ccc(N2CCN(S(=O)(=O)C3(C(=O)NO)CCN(C(=O)N4CCN(C)CC4)CC3)CC2)cc1 [Example 230]
2,> 10,CCCCOc1ccc(N2CCN(S(=O)(=O)C3(C(=O)NO)CCN(c4ncccn4)CC3)CC2)cc1 [Example 159]
3,1.73,O=C(NO)C1(S(=O)(=O)N2CCN(c3ccc(-c4ccc(F)cc4)cc3)CC2)CCOCC1 [Example 208]
4,0.493,COc1ccc(-c2ccc(N3CCN(S(=O)(=O)C4(C(=O)NO)CCOCC4)CC3)nc2)cc1 [Example 61]
5,2.31,O=C(NO)C1(S(=O)(=O)N2CCN(c3ccc(OC(F)(F)C(F)F)cc3)CC2)CCSCC1 [Example 62]
6,4.65,COCCN1CCC(C(=O)NO)(S(=O)(=O)N2CCN(c3ccc(C(C)=O)cc3)CC2)CC1 [Example 174]
7,> 10,CCCCOc1ccc(N2CCN(S(=O)(=O)C3(C(=O)NO)CCN(Cc4ccc(C)o4)CC3)CC2)cc1 [Example 246]
8,> 10,O=C(NO)C1(S(=O)(=O)N2CCN(c3nncs3)CC2)CCOCC1 [Example 215]
9,> 10,CCCCCc1ccc(N2CCN(S(=O)(=O)C3(C(=O)NO)CCN(S(N)(=O)=O)CC3)CC2)cc1 [Example 205]
10,> 10,CCCCOc1ccc(N2CCN(S(=O)(=O)C3(C(=O)NO)CCN(c4cccc(C)c4)CC3)CC2)cc1 [Example 226]
11,> 10,CC(C)Cc1ccc(N2CCN(S(=O)(=O)C3(C(=O)NO)CCOCC3)CC2)c(F)c1 [Example 213]
12,> 10,COCCN1CCC(C(=O)NO)(S(=O)(=O)N2CCN(c3ccc(OCC(C)C)c(F)c3)CC2)CC1 [Example 166]
13,> 10,CCCCOc1ccc(N2CCN(S(=O)(=O)C3(C(=O)NO)CCN(c4ccc(OC)c(OC)c4)CC3)CC2)cc1 [Example 229]
14,> 10,CCCCOc1ccc(N2CCN(S(=O)(=O)C3(C(=O)NO)CCN(C(=O)c4ccco4)CC3)CC2)cc1 [Example 156]
15,3.25,Cc1ccc(-c2ccc(N3CCN(S(=O)(=O)C4(C(=O)NO)CCOCC4)CC3)cc2)cc1 [Example 207]
16,9.28,COCCSc1ccc(N2CCN(S(=O)(=O)C3(C(=O)NO)CCOCC3)CC2)cc1 [Example 227]
17,7.36,CCCCC(=O)c1ccc(N2CCN(S(=O)(=O)C3(C(=O)NO)CCN(CCOC)CC3)CC2)cc1 [Example 177]
18,> 10,CCCCCc1ccc(N2CCN(S(=O)(=O)C3(C(=O)NO)CCN(S(C)(=O)=O)CC3)CC2)cc1 [Example 237]
19,> 10,CCCCCc1ccc(N2CCN(S(=O)(=O)C3(C(=O)NO)CCN(S(=O)(=O)N(C)C)CC3)CC2)cc1 [Example 236]
20,> 10,CCCCOc1ccc(N2CCN(S(=O)(=O)C3(C(=O)NO)CCN(C(=O)NC(C)(C)C)CC3)CC2)cc1 [Example 240]
21,> 10,CCCCOc1ccc(N2CCN(S(=O)(=O)C3(C(=O)NO)CCN(c4ccsc4)CC3)CC2)cc1 [Example 223]
22,> 10,CCCCOc1ccc(N2CCN(S(=O)(=O)C3(C(=O)NO)CCN(Cc4ncc[nH]4)CC3)CC2)cc1 [Example 247]

row,Ki [µM],Structure (SMILES)
1,> 10,CCCCOc1ccc(N2CCN(S(=O)(=O)C3(C(=O)NO)CCS(=O)(=O)CC3)CC2)cc1 [Example 222]
2,> 10,CCCCOc1ccc(N2CCN(S(=O)(=O)C3(C(=O)NO)CCN(CCCC(F)(F)F)CC3)CC2)cc1 [Example 238]
3,> 10,O=C(NO)C1(S(=O)(=O)N2CCN(c3ccc(OCCN4CCCC4)cc3)CC2)CCOCC1 [Example 162]
4,> 10,CCCCOc1ccc(N2CCN(S(=O)(=O)C3(C(=O)NO)CCN(c4nccs4)CC3)CC2)cc1 [Example 157]
5,> 10,CCCNC(=O)c1ccc(N2CCN(S(=O)(=O)C3(C(=O)NO)CCN(CCOC)CC3)CC2)cc1 [Example 175]
6,1.46,COCCN1CCC(C(=O)NO)(S(=O)(=O)N2CCN(c3ccccn3)CC2)CC1 [Example 176]
7,> 10,CCCCc1nnc(N2CCN(S(=O)(=O)C3(C(=O)NO)CCOCC3)CC2)s1 [Example 214]
8,> 10,CCCCOc1ccc(N2CCN(S(=O)(=O)C3(C(=O)NO)CCN(C(=O)N4CCCC4)CC3)CC2)cc1 [Example 231]
9,> 10,O=C(NO)C1(S(=O)(=O)N2CCN(c3cnc(CCC(F)(F)C(F)(F)F)cn3)CC2)CCOCC1 [Example 210]
10,> 10,CCCc1cnc(N2CCN(S(=O)(=O)C3(C(=O)NO)CCN(CCOC)CC3)CC2)nc1 [Example 178]
11,> 10,CCCCOc1ccc(N2CCN(S(=O)(=O)C3(C(=O)NO)CCN(c4ccc(OC(F)(F)C(F)F)cc4)CC3)CC2)cc1 [Example 65]
12,> 10,CCCCCc1ccc(N2CCN(S(=O)(=O)C3(C(=O)NO)CCN(C(=O)CC)CC3)CC2)cc1 [Example 206]
13,6.22,CCCCCc1ccc(N2CCN(S(=O)(=O)C3(C(=O)NO)CCOCC3)CC2)nc1 [Example 167]
14,0.45,O=C(NO)C1(S(=O)(=O)N2CCN(c3ccccn3)CC2)CCOCC1 [Example 169]
15,> 10,CCCCOc1ccc(N2CCN(S(=O)(=O)C3(C(=O)NO)CCN(CCOC)CC3)CC2)cn1 [Example 164]
16,> 10,CCCCCc1cnc(N2CCN(S(=O)(=O)C3(C(=O)NO)CCOCC3)CC2)cn1 [Example 219]
17,> 10,CCCCOc1ccc(N2CCN(S(=O)(=O)C3(C(=O)NO)CCN(C(=O)N(C(C)C)C(C)C)CC3)CC2)cc1 [Example 244]
18,> 10,CCCCOc1ccc(N2CCN(S(=O)(=O)C3(C(=O)NO)CCN(c4ccc(OC)cc4)CC3)CC2)cc1 [Example 249]
19,> 10,O=C(NO)C1(S(=O)(=O)N2CCN(c3ccc(COCC(F)(F)C(F)(F)F)cc3)CC2)CCOCC1 [Example 70]
20,> 10,CCOCCSc1ccc(N2CCN(S(=O)(=O)C3(C(=O)NO)CCOCC3)CC2)cc1 [Example 234]
21,> 10,O=C(NO)C1(S(=O)(=O)N2CCN(c3cnc(CCCC(F)(F)F)cn3)CC2)CCOCC1 [Example 209]
